Columns and labels:
hTAS1R2/rTAS1R3(Mut1) = biological target: T1, hTAS1R2/rTAS1R3(Mut1) (UniProt Q8TE23+Q923K1, A277V/L68N/R278H/S168G/S302A); assay: Calcium assay, mutated rTAS1R3 co-expressed with hTAS1R2; assay type: cell-based, human, rat
T1 construct: The cDNA coding region of rTAS1R3 was synthesized with optimized-codon usage for human expression; expressed in transfected cells
Procedure: HEK293T/17 cells (ATCC CRL-11268) were seeded into clear bottom black 96-well plates coated with poly-D-lysine at a density of 32500 cells/well in 100 μL of DMEM containing 4.5 g/L glucose and supplemented with penicillin/streptomycin, 2 mM GlutaMAX and 10 % dialyzed fetal bovine serum. The plates were incubated for 24 h at 37 °C and 7.3 % CO2 in a humidified atmosphere. After incubation, using Fugene® 4 K (0.46 μL/well, Promega, Illkirch, France), the cells were transiently transfected with pcDNA3-hTAS1R1-WT (60 ng/well) or TAS1R1 mutants, pcDNA4-rTAS1R3 (60 ng/well), pcDNA3-Gα15i2 (10 ng/well), and pGP-CMV-GCaMP6s (Addgene #40753; 10 ng/well) as a genetically encoded calcium indicator. […] After 20 s of basal fluorescence calcium measurement, the cells were stimulated via automatic injection of a range of compounds in eight wells, and the signal emission was recorded for an additional 70 s, via a FlexStation 3® fluorometric microplate reader (Molecular Devices, San Jose, CA, USA). […] The emitted fluorescence was measured at a wavelength of 510 nm after excitation at 488 nm. […] For each well, the decrease in the raw fluorescence as the relative fluorescence changed was calculated as ΔF/F0. Replicates were averaged for the wells subjected to the same stimuli, the background signal was subtracted, and the fluorescence changes in mock-transfected cells were subtracted. […]

hTAS1R2/rTAS1R3 = biological target: T2, hTAS1R2/rTAS1R3 (UniProt Q8TE23+Q923K1); assay: Calcium assay in transfected HEK293T/17 cells, sweet taste receptor; assay type: cell-based, human, rat
T2 construct: The cDNA coding region of rTAS1R3 was synthesized with optimized-codon usage for human expression; expressed in transfected cells
T2 sequence (Q8TE23 20-839): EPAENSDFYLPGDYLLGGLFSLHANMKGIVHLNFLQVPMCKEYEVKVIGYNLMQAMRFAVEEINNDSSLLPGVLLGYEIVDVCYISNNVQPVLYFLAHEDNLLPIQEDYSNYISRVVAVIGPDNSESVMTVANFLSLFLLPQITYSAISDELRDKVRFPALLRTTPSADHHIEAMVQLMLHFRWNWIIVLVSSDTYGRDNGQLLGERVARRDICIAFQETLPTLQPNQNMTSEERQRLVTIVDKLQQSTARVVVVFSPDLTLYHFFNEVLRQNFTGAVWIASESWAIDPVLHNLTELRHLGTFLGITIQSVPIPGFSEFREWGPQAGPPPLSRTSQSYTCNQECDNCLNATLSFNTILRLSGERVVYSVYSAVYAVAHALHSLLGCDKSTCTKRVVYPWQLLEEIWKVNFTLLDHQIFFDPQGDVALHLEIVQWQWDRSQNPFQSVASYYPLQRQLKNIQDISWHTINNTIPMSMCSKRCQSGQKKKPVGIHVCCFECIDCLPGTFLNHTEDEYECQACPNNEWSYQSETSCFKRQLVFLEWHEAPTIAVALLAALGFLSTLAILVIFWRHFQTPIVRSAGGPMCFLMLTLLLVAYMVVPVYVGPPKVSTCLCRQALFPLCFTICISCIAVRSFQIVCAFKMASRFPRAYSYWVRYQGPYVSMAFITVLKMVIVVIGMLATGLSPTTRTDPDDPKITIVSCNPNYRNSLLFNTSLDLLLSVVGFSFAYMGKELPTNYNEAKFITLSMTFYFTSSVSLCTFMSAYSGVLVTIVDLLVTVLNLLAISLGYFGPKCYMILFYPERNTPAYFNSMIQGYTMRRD
T2 sequence (Q923K1 21-858): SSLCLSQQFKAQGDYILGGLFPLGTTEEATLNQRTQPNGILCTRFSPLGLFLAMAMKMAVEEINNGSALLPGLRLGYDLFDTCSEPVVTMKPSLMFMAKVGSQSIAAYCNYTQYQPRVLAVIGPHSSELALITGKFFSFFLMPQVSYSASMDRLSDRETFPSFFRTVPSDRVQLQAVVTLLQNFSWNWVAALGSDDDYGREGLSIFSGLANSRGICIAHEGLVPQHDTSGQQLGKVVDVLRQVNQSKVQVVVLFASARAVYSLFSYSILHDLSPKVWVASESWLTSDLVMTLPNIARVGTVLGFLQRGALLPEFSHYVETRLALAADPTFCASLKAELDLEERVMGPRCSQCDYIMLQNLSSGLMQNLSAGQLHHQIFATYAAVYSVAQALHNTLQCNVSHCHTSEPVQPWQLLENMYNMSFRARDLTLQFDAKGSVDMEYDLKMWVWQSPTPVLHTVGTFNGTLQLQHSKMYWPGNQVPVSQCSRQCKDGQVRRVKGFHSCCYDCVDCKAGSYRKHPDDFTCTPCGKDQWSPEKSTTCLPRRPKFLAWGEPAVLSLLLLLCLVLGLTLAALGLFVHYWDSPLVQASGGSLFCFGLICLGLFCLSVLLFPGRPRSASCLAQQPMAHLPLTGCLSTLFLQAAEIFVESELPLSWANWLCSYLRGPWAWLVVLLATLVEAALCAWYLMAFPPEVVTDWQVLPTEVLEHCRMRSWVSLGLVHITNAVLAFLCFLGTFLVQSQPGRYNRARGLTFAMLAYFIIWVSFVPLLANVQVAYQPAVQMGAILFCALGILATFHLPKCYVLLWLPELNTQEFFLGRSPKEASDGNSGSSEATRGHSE
Procedure: HEK293T/17 cells (ATCC CRL-11268) were seeded into clear bottom black 96-well plates coated with poly-D-lysine at a density of 32500 cells/well in 100 μL of DMEM containing 4.5 g/L glucose and supplemented with penicillin/streptomycin, 2 mM GlutaMAX and 10 % dialyzed fetal bovine serum. The plates were incubated for 24 h at 37 °C and 7.3 % CO2 in a humidified atmosphere. After incubation, using Fugene® 4 K (0.46 μL/well, Promega, Illkirch, France), the cells were transiently transfected with pcDNA3-hTAS1R1-WT (60 ng/well) or TAS1R1 mutants, pcDNA4-rTAS1R3 (60 ng/well), pcDNA3-Gα15i2 (10 ng/well), and pGP-CMV-GCaMP6s (Addgene #40753; 10 ng/well) as a genetically encoded calcium indicator. Twenty-four hours after transfection, the HEK293T/17 cells were rinsed with 100 μL of C1 buffer (130 mM NaCl, 5 mM KCl, 10 mM HEPES, 2 mM CaCl2, and 5 mM sodium pyruvate, pH 7.4). For each molecule tested, a semi-logarithmic concentration range was created consisting of seven increasing concentrations and a negative control (zero dose) made of buffer C1. Binary mixtures with different molecules were also made to study potential synergy. In this case, the concentration range was tested in C1 buffer containing the other molecules to be tested. The concentration ranges varied depending on the molecule, its solubility, and its effectiveness in activating the receptor. All the solutions were made on the day of the test to prevent any oxidation of the compounds. If needed, the pH of each solution was adjusted by to pH 7.4 by adding NaOH. After 20 s of basal fluorescence calcium measurement, the cells were stimulated via automatic injection of a range of compounds in eight wells, and the signal emission was recorded for an additional 70 s, via a FlexStation 3® fluorometric microplate reader (Molecular Devices, San Jose, CA, USA). As a control, molecules were also tested on mock-transfected cells with the empty vector. The emitted fluorescence was measured at a wavelength of 510 nm after excitation at 488 nm. Each measurement was performed in duplicate on the same plate, and the experiments were carried out at least four times. Kinetic data were acquired via SoftMax Pro 5.4.6 software (Molecular Devices). For each well, the decrease in the raw fluorescence as the relative fluorescence changed was calculated as ΔF/F0. Replicates were averaged for the wells subjected to the same stimuli, the background signal was subtracted, and the fluorescence changes in mock-transfected cells were subtracted. The half-maximal effective concentration (EC50) and maximal signal amplitude (max ∆F/F0) were calculated via non-linear regression of the sigmoidal function four-parameter logistic equation [f(x) = min + (max − min)/(1 + (x/EC50)^nH)] via SigmaPlot 15.0 software (Grafiti LLC, Palo Alto, CA, USA). […]

T1 sequence (Q923K1 21-858 L68N/S168G/A277V/R278H/S302A, one chain of several): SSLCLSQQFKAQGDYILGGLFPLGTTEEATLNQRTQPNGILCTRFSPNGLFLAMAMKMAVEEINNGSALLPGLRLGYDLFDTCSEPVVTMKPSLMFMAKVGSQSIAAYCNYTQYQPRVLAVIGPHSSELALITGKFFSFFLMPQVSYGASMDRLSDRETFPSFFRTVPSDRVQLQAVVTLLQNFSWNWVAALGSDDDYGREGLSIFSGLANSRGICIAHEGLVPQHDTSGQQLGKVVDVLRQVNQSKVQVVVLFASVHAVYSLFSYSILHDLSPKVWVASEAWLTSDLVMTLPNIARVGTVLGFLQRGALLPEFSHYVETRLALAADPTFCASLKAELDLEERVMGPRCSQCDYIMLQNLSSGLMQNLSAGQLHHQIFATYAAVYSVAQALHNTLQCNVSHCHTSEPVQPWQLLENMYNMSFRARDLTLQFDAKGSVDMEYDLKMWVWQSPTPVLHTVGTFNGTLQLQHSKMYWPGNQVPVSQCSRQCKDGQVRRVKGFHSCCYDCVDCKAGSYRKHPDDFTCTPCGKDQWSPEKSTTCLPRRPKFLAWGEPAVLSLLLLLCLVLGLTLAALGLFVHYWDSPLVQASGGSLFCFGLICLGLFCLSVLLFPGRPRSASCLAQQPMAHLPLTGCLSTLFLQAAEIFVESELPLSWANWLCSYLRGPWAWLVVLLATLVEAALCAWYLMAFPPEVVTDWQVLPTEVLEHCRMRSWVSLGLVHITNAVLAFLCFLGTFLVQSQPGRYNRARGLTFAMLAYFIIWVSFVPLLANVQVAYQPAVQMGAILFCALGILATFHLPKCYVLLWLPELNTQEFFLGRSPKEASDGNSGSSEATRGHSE

Row | EC50 (hTAS1R2/rTAS1R3(Mut1); sucralose alone, Fig. 4A) | EC50 (hTAS1R2/rTAS1R3; WT, sucralose alone, Fig. 4A) | Structure (SMILES) | effect of 10 mM GSH on the response to sucralose (hTAS1R2/rTAS1R3(Mut1)) | EC50 (hTAS1R2/rTAS1R3; agonist alone, Fig. 2) | fold decrease in the EC50 value of sucralose (hTAS1R2/rTAS1R3; in the presence of 10 mM GSH)
1 |  |  | N[C@@H](CCC(=O)N[C@@H](CS)C(=O)NCC(=O)O)C(=O)O [GSH, γ-L-glutamyl-L-cysteinyl-glycine] | not increased | 4060 ± 2510 µM | 3 fold
2 | 283 ± 55 µM | 325 ± 140 µM | OC[C@H]1O[C@H](O[C@]2(CCl)O[C@H](CCl)[C@@H](O)[C@@H]2O)[C@H](O)[C@@H](O)[C@H]1Cl [sucralose, reference compound] |  | 251 ± 128 µM | 
